Literature values as cited in patent US20120095087A1, “ENHANCED PRODUCTS BY SUSTAINABLE PROCESSES FOR MEDICINAL USE” (priority 2010, published 2012).

What was measured:
cancer cell growth = details: low potency in non-cancer cells
CB2 receptors = CB2 receptors (Homo sapiens, UniProt P34972)
5-HT1A receptor = target: T1, 5-HT1A receptor (Homo sapiens, UniProt P08908)
T1 sequence (P08908 1-422): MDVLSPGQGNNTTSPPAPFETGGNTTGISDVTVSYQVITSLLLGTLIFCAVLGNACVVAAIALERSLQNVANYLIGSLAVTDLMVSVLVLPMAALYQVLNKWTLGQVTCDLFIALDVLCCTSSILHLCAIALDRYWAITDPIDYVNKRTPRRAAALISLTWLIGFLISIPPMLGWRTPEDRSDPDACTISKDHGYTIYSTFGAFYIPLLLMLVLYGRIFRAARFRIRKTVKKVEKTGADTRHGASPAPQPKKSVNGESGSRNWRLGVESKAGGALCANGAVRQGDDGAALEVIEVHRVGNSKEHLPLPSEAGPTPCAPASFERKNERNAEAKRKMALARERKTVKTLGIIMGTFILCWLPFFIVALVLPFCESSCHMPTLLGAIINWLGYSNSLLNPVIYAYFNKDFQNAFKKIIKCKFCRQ

GPR55 = GPR55 (Homo sapiens, UniProt Q9Y2T6); details: putative new cannabinoid receptor
[1] = animal tests
gene ID1 = details: in vitro

Chain of CB2 receptors (P34972 whole entry): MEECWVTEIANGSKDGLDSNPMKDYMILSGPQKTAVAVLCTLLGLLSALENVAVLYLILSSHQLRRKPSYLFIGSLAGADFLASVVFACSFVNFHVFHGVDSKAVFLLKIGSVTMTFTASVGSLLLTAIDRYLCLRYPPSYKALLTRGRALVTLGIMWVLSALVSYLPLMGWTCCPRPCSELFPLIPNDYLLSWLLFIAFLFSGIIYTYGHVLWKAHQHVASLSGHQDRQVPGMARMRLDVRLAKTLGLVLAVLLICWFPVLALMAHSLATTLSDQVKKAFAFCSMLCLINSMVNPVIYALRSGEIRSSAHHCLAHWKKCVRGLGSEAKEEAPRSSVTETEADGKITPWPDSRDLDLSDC
Chain of GPR55 (Q9Y2T6 whole entry, species assumed): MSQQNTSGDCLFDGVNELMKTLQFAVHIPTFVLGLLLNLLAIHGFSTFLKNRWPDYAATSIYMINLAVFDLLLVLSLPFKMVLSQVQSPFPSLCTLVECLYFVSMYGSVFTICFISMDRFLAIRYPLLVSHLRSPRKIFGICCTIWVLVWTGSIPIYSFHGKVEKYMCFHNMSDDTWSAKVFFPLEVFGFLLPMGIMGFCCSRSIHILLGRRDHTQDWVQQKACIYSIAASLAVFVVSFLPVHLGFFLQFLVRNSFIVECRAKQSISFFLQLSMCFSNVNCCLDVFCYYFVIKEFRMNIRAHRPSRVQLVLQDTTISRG

Row | SMILES | cancer cell growth (cancer cell growth) | affinity for CB2 receptors (CB2 receptors) | action at 5-HT1A receptor (5-HT1A receptor) | action at GPR55 (GPR55) | sedative effects [1] | activity of the gene ID1 (gene ID1) | potency relative to THC
1 | C=C(C)[C@@H]1CCC(C)=C[C@H]1c1c(O)cc(CCCCC)cc1O [Cannabidiol, cannabidiol] | inhibit cancer cell growth | no affinity | agonist | antagonist | sedative effects | downregulates | –
2 | CCCCCCC(C)(C)c1cc(O)c2c(c1)OC(C)(C)[C@@H]1CC=C(CO)C[C@@H]21 [HU-210] | – | – | – | – | – | – | about 100 times
